Measured values: EPA's ToxRefDB 2

What was measured:
mouse = settings: Carcinogenicity; cd1; Oral; Feed; dose end: 18 month; group: systemic; systemic / pathology microscopic / liver / vacuolization + systemic / pathology microscopic / seminal vesicle / distended + systemic / …
rat [1] = settings: Prenatal developmental toxicity study, other, Oral, Gavage/Intubation, dose end: 16 GD
rabbit = settings: Prenatal developmental toxicity study, new zealand white, Oral, Gavage/Intubation, dose end: 19 GD
rat [2] = settings: Combined chronic toxicity/carcinogenicity, other, Oral, Feed, dose end: 24 month, group: systemic
rat [3] = settings: Multigenerational reproductive toxicity study, long evans, Oral, Gavage/Intubation, dose end: 1 generation
hamster = settings: Multigenerational reproductive toxicity study, golden syrian, Oral, Gavage/Intubation, dose end: 1 generation
dog [4] = settings: Chronic toxicity; beagle; Oral; Feed; dose end: 52 week; group: systemic; systemic / clinical chemistry / cholesterol / cholesterol
rat [5] = settings: Sub-acute dermal toxicity, sprague dawley, Topical, dose end: 28 day, group: systemic
dog [6] = settings: Subchronic oral toxicity in nonrodent, beagle, Feed, dose end: 13 week, group: systemic
dog [7] = settings: Chronic toxicity; beagle; Oral; Feed; dose end: 24 month; group: systemic; systemic / clinical chemistry / alanine aminotransferase (alt/sgpt) / alanine aminotransferase (alt/sgpt) + systemic / clinical chemistry / …
rat [8] = settings: Prenatal developmental toxicity study, other, Oral, Gavage/Intubation, dose end: 16 GD; remark: listed apart in the source
[9] = group: developmental, developmental / developmental malformation / bone / short + developmental / developmental malformation / bone / supernumerary
[10] = group: developmental, developmental / developmental malformation / bone / short + developmental / developmental malformation / bone / supernumerary + …
[11] = group: maternal, systemic / in life observation / body weight / body weight gain + systemic / in life observation / food consumption / food consumption
[12] = group: maternal, systemic / in life observation / body weight / body weight gain + systemic / in life observation / food consumption / food consumption + …
[13] = group: developmental, developmental / developmental malformation / other / other
[14] = group: maternal, reproductive / reproductive performance / postimplantation loss / postimplantation loss + reproductive / reproductive performance / …
[15] = systemic / organ weight / brain / absolute + systemic / organ weight / brain / relative to body weight
[16] = group: parental, systemic / organ weight / epididymis / absolute + systemic / organ weight / testes / absolute + systemic / pathology gross / sperm measure…
[17] = group: parental, systemic / pathology gross / sperm measure / sperm count + systemic / pathology microscopic / testes / atrophy
[18] = group: reproductive, reproductive / reproductive performance / pregnancy / pregnancy + reproductive / reproductive performance / resorptions / resorptions + …
[19] = group: offspring, systemic / in life observation / body weight / offspring (pup) weight
[20] = group: parental, systemic / pathology gross / kidney / enlarged + systemic / pathology gross / liver / enlarged + systemic / pathology gross / sperm measure…
[21] = systemic / pathology microscopic / epididymis / hypospermia + systemic / pathology microscopic / testes / degeneration
[22] = systemic / pathology microscopic / epididymis / hypospermia + systemic / pathology microscopic / testes / degeneration + systemic / …
[23] = systemic / in life observation / food consumption / food consumption + systemic / clinical chemistry / cholesterol / cholesterol + systemic…
[24] = group: developmental, developmental / developmental malformation / bone / bipartite ossification + developmental / developmental malformation / bone / dumbbell …
[25] = group: maternal, systemic / organ weight / liver / absolute

SMILES: CCC(C)n1c(=O)[nH]c(C)c(Br)c1=O (centres undefined) [Bromacil]
- LEL (mouse): 36 mg/kg/day
- LOAEL (mouse): 36 mg/kg/day
- NEL (mouse): < 36 mg/kg/day
- NOAEL (mouse): < 36 mg/kg/day
- LEL (rat [1]; [9]): 200 mg/kg/day
- LOAEL (rat [1]; [9]): 200 mg/kg/day
- NEL (rat [1]; [10]): 75 mg/kg/day
- NOAEL (rat [1]; [10]): 75 mg/kg/day
- LEL (rat [1]; [11]): 75 mg/kg/day
- LOAEL (rat [1]; [11]): 75 mg/kg/day
- NEL (rat [1]; [12]): 20 mg/kg/day
- NOAEL (rat [1]; [12]): 20 mg/kg/day
- LEL (rabbit; [13]): 500 mg/kg/day
- LOAEL (rabbit; [13]): > 500 mg/kg/day
- NEL (rabbit; [13]): 300 mg/kg/day
- NOAEL (rabbit; [13]): ≥ 500 mg/kg/day
- LEL (rabbit; [14]): 300 mg/kg/day
- LOAEL (rabbit; [14]): 300 mg/kg/day
- NEL (rabbit; [14]): 100 mg/kg/day
- NOAEL (rabbit; [14]): 100 mg/kg/day
- LOAEL (rat [2]; systemic / in life observation / body weight / body weight gain): 9.82 mg/kg/day
- NOAEL (rat [2]; systemic / in life observation / body weight / body weight gain + systemic / in life observation / body weight / body weight + systemic / …): 1.96 mg/kg/day
- LEL (rat [2]; [15]): 1.96 mg/kg/day
- NEL (rat [2]; [15]): < 1.96 mg/kg/day

SMILES: COC(=O)Nc1nc2ccccc2[nH]1 [Carbendazim]
- LOAEL (rat [3]; [16]): > 400 mg/kg/day
- NOAEL (rat [3]; [16]): ≥ 400 mg/kg/day
- LEL (rat [3]; [17]): 50 mg/kg/day
- NEL (rat [3]; [17]): < 50 mg/kg/day
- LEL (rat [3]; group: reproductive, reproductive / reproductive performance / pregnancy / pregnancy + reproductive / offspring survival early / litter viability other / litter …): 200 mg/kg/day
- NEL (rat [3]; group: reproductive, reproductive / reproductive performance / pregnancy / pregnancy + reproductive / reproductive performance / resorptions / resorptions): 100 mg/kg/day
- LOAEL (rat [3]; [18]): > 400 mg/kg/day
- NOAEL (rat [3]; [18]): ≥ 400 mg/kg/day
- LEL (hamster; [19]): 400 mg/kg/day
- LOAEL (hamster; [19]): > 400 mg/kg/day
- NEL (hamster; [19]): < 400 mg/kg/day
- NOAEL (hamster; [19]): ≥ 400 mg/kg/day
- LEL (hamster; [20]): 400 mg/kg/day
- LOAEL (hamster; [20]): > 400 mg/kg/day
- NEL (hamster; [20]): < 400 mg/kg/day
- NOAEL (hamster; [20]): ≥ 400 mg/kg/day
- LEL (dog [4]): 16.5 mg/kg/day
- LOAEL (dog [4]): 16.5 mg/kg/day
- NEL (dog [4]): 6.43 mg/kg/day
- NOAEL (dog [4]): 6.43 mg/kg/day
- LEL (rat [5]; [21]): 120 mg/kg/day
- LOAEL (rat [5]; [21]): 120 mg/kg/day
- NEL (rat [5]; [22]): 20 mg/kg/day
- NOAEL (rat [5]; [22]): 20 mg/kg/day
- LOAEL (dog [6]; systemic / clinical chemistry / cholesterol / cholesterol + systemic / pathology microscopic / liver / [other]): 35 mg/kg/day
- LEL (dog [6]; systemic / in life observation / food consumption / food consumption + systemic / clinical chemistry / cholesterol / cholesterol): 11.3 mg/kg/day
- NEL (dog [6]; [23]): 2.7 mg/kg/day
- NOAEL (dog [6]; [23]): 11.3 mg/kg/day
- LEL (dog [7]): 12.5 mg/kg/day
- LOAEL (dog [7]): 12.5 mg/kg/day
- NEL (dog [7]): 2.5 mg/kg/day
- NOAEL (dog [7]): 2.5 mg/kg/day
- LEL (rat [8]; [24]): 20 mg/kg/day
- LOAEL (rat [8]; [24]): 20 mg/kg/day
- NEL (rat [8]; [24]): 10 mg/kg/day
- NOAEL (rat [8]; [24]): 10 mg/kg/day
- LOAEL (rat [8]; [25]): 90 mg/kg/day
- NEL (rat [8]; [25]): 20 mg/kg/day
- NOAEL (rat [8]; [25]): 20 mg/kg/day
- LEL (rat [8]; group: maternal, systemic / organ weight / liver / absolute + reproductive / offspring survival early / live fetuses / live fetuses + reproductive / …): 90 mg/kg/day
